Experimental data taken from patent publication US20100137346A1, “DESFE[…] ACTINIDE DEC[…]” (priority 2006, published 2010).
Where two headings read alike, the source gives them in different places.

Test: Chelator-induced uranium excretion (urine + bile, 24 h) in bile duct-cannulated rat model
Assay type: in vivo
Conditions: for uranium clearance, in words: given IP immediately post uranyl acetate, doses per Table 1
Protocol: Desferrithiocin Analogue Induced Excretion of Uranium. In order to compare results with previous chelator-induced iron excretion data, the uranium clearance studies were carried out in a bile duct-cannulated rat model. The animals were given uranyl acetate dihydrate SC at a dose of 5 mg/kg (the actual dose of uranium is 2.8 mg/kg). Bile and urine samples were collected for 24 hours after dosing. Kidneys were removed from selected animals and tissue uranium concentration measured. At least three animals were utilized in each experimental group. Data from two separate control studies (uranyl acetate/ no chelator) have now been combined for a total of 14 control animals. All uranium concentrations were measured using ICPMS. The data are reported as the total quantity of uranium excreted [urine +bile]; the mode of excretion [urine/bile] is also given. In addition the percentage of the administered dose of uranium cleared and chelator-induced uranium excretion vs the controls is also given. Four positive controls were evaluated: DTPA (13, Table 1) given as its trisodium calcium salt, DFO (14), N,N′-bis(2hydroxybenzyl)ethylenediamine-N,N′-diacetic acid, monosodium salt (NaHBED, 15) and the hydroxypyridone CP94 (16) shown to bind uranium [Pashalidis, et al., Effective complex formation in the interaction of 1,2-dimethyl-3-hydroxypyrid-4-one (Deferiprone or L1) with uranium(VI), Journal of Radioanalytical and Nuclear Chemistry 1999; 242:181-184.] The total metal cleared after 24 h in control rats was 10% of the administered dose. When DTPA, 13, was given IP or PO at 300 μmol/kg immediately after uranium, the excretion was 17% and 8% of the administered dose respectively (p>0.05). However, when the drug was given IP at a dose of 600 μmol/kg immediately post-metal, the uranium excretion was significant, 20% (p<0.005). This is consistent with previously published data using a similar animal model.[Domingo, et al., Comparative effects of the chelators sodium 4,5-dihydroxybenzene-1,3-disulfonate (Tiron) and diethylenetriaminepentaacetic acid (DTPA) on acute uranium nephrotoxicity in rats, Toxicology 1997; 118:49-59] DFO (14) and CP94 (16) given IP immediately post uranyl acetate were ineffective.
Desferrithiocin Analogue-Induced Excretion of Uranium. In order to compare results with previous chelator-induced iron excretion data, the uranium clearance studies were carried out in a bile duct-cannulated rat model. The animals were given uranyl acetate dihydrate SC at a dose of 5 mg/kg (the actual dose of uranium is 2.8 mg/kg). Bile and urine samples were collected for 24 hours after dosing. Kidneys were removed from selected animals and tissue uranium concentration measured. At least three animals were utilized in each experimental group. Data from two separate control studies (uranyl acetate/ no chelator) are combined for a total of 14 control animals. All uranium concentrations were measured using ICPMS. The data are reported as the total quantity of uranium excreted [urine +bile]; the mode of excretion [urine/bile] is also given. In addition the percentage of the administered dose of uranium cleared and chelator-induced uranium excretion vs the controls is also given. Four positive controls were evaluated: DTPA (1, Table 1) given as its trisodium calcium salt, DFO (2), N,N -bis(2-hydroxybenzyl)ethylenediamine-N,N-diacetic acid, monosodium salt (NaHBED, 3) and the hydroxypyridone CP94 (4) shown to bind uranium. The total metal cleared after 24 h in control rats was 10% of the administered dose. When DTPA, 1, was given IP or PO at 300 μmol/kg immediately after uranium, the excretion was 17% and 8% of the administered dose respectively (p>0.05). However, when the drug was given IP at a dose of 600 μmol/kg immediately post metal, the uranium excretion was significant, 20% (p<0.005). This is consistent with previously published data using a similar animal model.^2 DFO (2) and CP94 (4) given IP immediately post uranyl acetate were ineffective.

[1] = Rattus norvegicus, ip, 24 h, 300 μmol/kg IP Immediate, read-out: Chelator-Induced U Excretion/Control
[2] = Rattus norvegicus, po, 24 h, 300 μmol/kg PO Immediate, read-out: Chelator-Induced U Excretion/Control

For `CCC1=C(O)C(=O)CCN1CC` [CP94, reference compound], the “uranium clearance, in words” value was “ineffective”.

In the case of `COc1ccc(C2=N[C@H](C(=O)O)CS2)c(O)c1`, the “% of Administered Dose Cleared” value (300 μmol/kg IP 0.5 h Post) is reported as 33%, the “Uranium Excretion” value (300 μmol/kg IP 0.5 h Post) is reported as 917 ± 177 µg/kg and the “Uranium Excretion [urine/bite]” value (300 μmol/kg IP 0.5 h Post) is reported as 16/84. For the same molecule, the “% of Administered Dose Cleared” value (300 μmol/kg IP 0.5 h Pre) was 29%, the “Uranium Excretion” value (300 μmol/kg IP 0.5 h Pre) was 815 ± 211 µg/kg and the “Uranium Excretion [urine/bite]” value (300 μmol/kg IP 0.5 h Pre) was 48/52. The “% of Administered Dose Cleared” value (300 μmol/kg IP 2 h Post) was 30%, the “Uranium Excretion” value (300 μmol/kg IP 2 h Post) was 847 ± 335 µg/kg and the “Uranium Excretion [urine/bite]” value (300 μmol/kg IP 2 h Post) was 46/54. The “% of Administered Dose Cleared” value (300 μmol/kg IP 4 h Post) was 16%, the “Uranium Excretion” value (300 μmol/kg IP 4 h Post) was 444 ± 119 µg/kg and the “Uranium Excretion [urine/bite]” value (300 μmol/kg IP 4 h Post) was 66/34. The “% of Administered Dose Cleared” value (300 μmol/kg IP Immediate) was 30%, the “Uranium Excretion” value (300 μmol/kg IP Immediate) was 838 ± 166 µg/kg and the “Uranium Excretion [urine/bite]” value (300 μmol/kg IP Immediate) was 64/36. For the same molecule, the “% of Administered Dose Cleared” value (300 μmol/kg PO 2 h Post) was 18%, the “Uranium Excretion” value (300 μmol/kg PO 2 h Post) was 507 ± 182 µg/kg and the “Uranium Excretion [urine/bite]” value (300 μmol/kg PO 2 h Post) was 53/47. The “% of Administered Dose Cleared” value (300 μmol/kg PO Immediate) was 23%, the “Uranium Excretion” value (300 μmol/kg PO Immediate) was 642 ± 101 µg/kg and the “Uranium Excretion [urine/bite]” value (300 μmol/kg PO Immediate) was 43/57. The “% of Administered Dose Cleared” value (300 μmol/kg SC Immediate) was 40%, the “Uranium Excretion” value (300 μmol/kg SC Immediate) was 1130 ± 246 µg/kg and the “Uranium Excretion [urine/bite]” value (300 μmol/kg SC Immediate) was 13/87. The “% of Administered Dose Cleared” value (600 μmol/kg PO 0.5 h Post) was 25%, the “Uranium Excretion” value (600 μmol/kg PO 0.5 h Post) was 698 ± 166 µg/kg and the “Uranium Excretion [urine/bite]” value (600 μmol/kg PO 0.5 h Post) was 24/76. The “% of Administered Dose Cleared” value (600 μmol/kg PO 1 h Post) was 26%, the “Uranium Excretion” value (600 μmol/kg PO 1 h Post) was 723 ± 126 µg/kg and the “Uranium Excretion [urine/bite]” value (600 μmol/kg PO 1 h Post) was 28/72. The response vs control in vivo at 300 µmol/kg (Rattus norvegicus, ip, 24 h, 300 μmol/kg IP 0.5 h Post, read-out: Chelator-Induced U Excretion/Control) was 330%, the response vs control in vivo at 300 µmol/kg (Rattus norvegicus, ip, 24 h, 300 μmol/kg IP 0.5 h Pre, read-out: Chelator-Induced U Excretion/Control) was 290% and the response vs control in vivo at 300 µmol/kg (Rattus norvegicus, ip, 24 h, 300 μmol/kg IP 2 h Post, read-out: Chelator-Induced U Excretion/Control) was 300%. It also gave a response vs control in vivo at 300 µmol/kg (Rattus norvegicus, ip, 24 h, 300 μmol/kg IP 4 h Post, read-out: Chelator-Induced U Excretion/Control) of 160%, a response vs control in vivo at 300 µmol/kg [1] of 300% and a response vs control in vivo at 300 µmol/kg (Rattus norvegicus, po, 24 h, 300 μmol/kg PO 2 h Post, read-out: Chelator-Induced U Excretion/Control) of 180%. It also gave a response vs control in vivo at 300 µmol/kg [2] of 230%, a response vs control in vivo at 600 µmol/kg (Rattus norvegicus, po, 24 h, 600 μmol/kg PO 0.5 h Post, read-out: Chelator-Induced U Excretion/Control) of 250% and a response vs control in vivo at 600 µmol/kg (Rattus norvegicus, po, 24 h, 600 μmol/kg PO 1 h Post, read-out: Chelator-Induced U Excretion/Control) of 260%. For the same molecule, the response vs control in vivo at 300 µmol/kg (Rattus norvegicus, sc, 24 h, 300 μmol/kg SC Immediate, read-out: Chelator-Induced U Excretion/Control) was 400%.

For `COc1ccc(C2=N[C@@](C)(C(=O)O)CS2)c(O)c1` [drawing 8], the “% of Administered Dose Cleared” value (300 μmol/kg IP 0.5 h Post) was 15%, the “Chelator-Induced U Excretion/Control” value (300 μmol/kg IP 0.5 h Post) was 1.5 and the “Uranium Excretion” value (300 μmol/kg IP 0.5 h Post) was 413 ± 148 µg/kg. For the same molecule, the “Uranium Excretion [urine/bite]” value (300 μmol/kg IP 0.5 h Post) was “[37/63]”, the “Chelator-Induced U Excretion/Control” value (300 μmol/kg IP Immediate) was 2.0 and the “Uranium Excretion” value (300 μmol/kg IP Immediate) was 568 ± 133 µg/kg. The “Uranium Excretion [urine/bite]” value (300 μmol/kg IP Immediate) was 59/41.

In the case of `O=C([O-])CN(CCN(CC(=O)O)Cc1ccccc1O)Cc1ccccc1O.[Na+]` [drawing 6], the “% of Administered Dose Cleared” value (150 μmol/kg IP Immediate) is reported as 17%, the “Uranium Excretion” value (150 μmol/kg IP Immediate) is reported as 483 ± 119 µg/kg and the “Uranium Excretion [urine/bite]” value (150 μmol/kg IP Immediate) is reported as 97/3. The response vs control in vivo at 150 µmol/kg (Rattus norvegicus, ip, 24 h, 150 μmol/kg IP Immediate, read-out: Chelator-Induced U Excretion/Control) was 170%.

With `O=C([O-])CN(CCN(CC(=O)O)Cc1ccccc1O)Cc1ccccc1O.[Na+]` [NaHBED, N,N′-bis(2hydroxybenzyl)ethylenediamine-N,N′-diacetic acid, monosodium salt, reference compound] the “uranium clearance, in words” value was “marginally improved clearance”.

In the case of `O=C(O)CN(CCN(CC(=O)O)CC(=O)O)CCN(CC(=O)O)CC(=O)O` [drawing 4], the “% of Administered Dose Cleared” value (300 μmol/kg IP Immediate) is reported as 17%, the “Uranium Excretion” value (300 μmol/kg IP Immediate) is reported as 469 ± 271 µg/kg and the “Uranium Excretion [urine/bite]” value (300 μmol/kg IP Immediate) is reported as 99/1. For the same molecule, the “% of Administered Dose Cleared” value (300 μmol/kg PO Immediate) was 6%, the “Uranium Excretion” value (300 μmol/kg PO Immediate) was 235 ± 205 µg/kg and the “Uranium Excretion [urine/bite]” value (300 μmol/kg PO Immediate) was “[100/0]”. The “% of Administered Dose Cleared” value (600 μmol/kg IP Immediate) was 20%, the “Uranium Excretion” value (600 μmol/kg IP Immediate) was 546 ± 147 µg/kg and the “Uranium Excretion [urine/bite]” value (600 μmol/kg IP Immediate) was “[100/0]”. The response vs control in vivo at 300 µmol/kg [1] was 170%, the response vs control in vivo at 600 µmol/kg (Rattus norvegicus, ip, 24 h, 600 μmol/kg IP Immediate, read-out: Chelator-Induced U Excretion/Control) was 200% and the response vs control in vivo at 300 µmol/kg [2] was 80%.
